Measured values: patent publication US9918480B2, “Compositions and methods to selectively control invasive species” (STEPHEN F. AUSTIN STATE UNIVERSITY, priority 2013, dated 2018)
Where two headings read alike, the source gives them in different places.

Legend:
[1] = test system: giant salvinia (Salvinia molesta); test: Spray of salviniside II and other isolates/fractions on giant salvinia plants; format: in vivo; set-up: key to activity class against giant salvinia: inactive: not able to inhibit the growth of giant salvinia at all; active: able to fully inhibit the growth of giant salvinia at high concentrations; very active: able to fully inhibit the growth of giant salvinia at low concentrations
Experimental: The combined fractions were loaded on a pre-equilibrated open ODS column (60×600 mm). The ODS column was eluted successively with 30%, 55%, 75% and 100% MeOH to yield four fractions F1, F2, F3, and F4, respectively. […] NMR experiments were performed on a JEOL ECS-400 and a Bruker Avance 700 NMR instrument. NMR data were reported as δ (ppm) values and referenced to the solvent used. HRESIMS were acquired on an electrospray instrument (MDS Sciex Pulsar Qstar, Ontario, Canada). Octadecyl-functionalized silica gel, silica gel, Sephadex LH-20, and TLC plates were purchased from Aldrich Chemical Co. HPLC analysis was performed on a Hewlett Packard Series 1100 with a HP 1100 diode array detector using a Hypersil ODS column (150×4.6 mm, 5 μM, Supelco; flow rate, 1 mL/min; MeOH/H2O (v/v) linear gradient, 2:98-98:2 in 35 min). Preparative HPLC was performed with an Acuflow Series III pump connected with an Acutect 500 UV/VIS detector using an Econosil ODS column (250×22 mm, 10 μM, All tech). The total 27 healthy and untreated living plants of giant salvinia (in secondary growth stage, approximately 10 g in fresh weight each) were cultured and tested in plastic containers (14×15 cm, 0.68 L) in the NCPC Lab at RT. The […] treatments were as follows. Controls: 9 plants with three in each container (3 replications) were cultured with 150 mL of tap water; 0.01% salviniside II treatment: 9 plants with three in each container (3 replications) were sprayed with 150 mL 0.01% of salviniside II dissolved in tap water; and 0.1% salviniside II treatment: 9 plants with three in each container (3 replications) were sprayed with 150 mL 0.1% of salviniside II dissolved in tap water. […] By the end of two weeks, new growth biomass of plants in each treatment was measured. The biomass of new growth was a primary factor to measure the inhibition of each treatment on the target plant.

L. leucocephala = conditions: 100 mg/L; cited from earlier work
[2] = test system: red imported fire ant (Solenopsis invicta Buren) workers; test: Contact toxicity assay, topical spray on fire ant workers, 7 h; format: in vivo; conditions: PROBIT
Experimental: (§1) Preparation of the fire ant extracts: (1) Acetone extract: 97 g (in fresh weight) of the red imported fire ant workers were extracted two times with acetone at RT (each 250 mL, 24 h). […] (2) Ethanol extract: 110 g (in fresh weight) of the whole worker bodies of the red imported fire ant (Solenopsis invicta Buren) (family Furmicidae) were extracted two times with 95% EtOH at RT (each 250 mL, 24 h). […] Both extracts were dissolved in water and then prepared as experimental solutions at the concentration of 0.1%, 1%, 5%, and 10%, respectively. […] The mixture was put under ultrasound for 30 min extraction. The fire ants were then removed and the extract was dried with anhydrous magnesium sulfate. 500 μL of the extract was transferred to NMR tube for detection. ^1H-NMR experiments were performed on a JEOL ECS 400 spectrometer, with spectroscopic data referenced to the solvent used. […] The ants in each beaker were topically sprayed with a total 1 mL of 0.1%, 1%, 5%, or 10% solutions of either acetone or ethanol extract, respectively. The control group was sprayed with 1 mL pure water. The beakers in all treatments were covered by cloth to prevent the escape of the fire ants. The surviving number of the fire ants in each treatment was counted by 1 h interval for 7 h. […] The ants in each beaker were topically sprayed with a total 1 mL of 0.1%, 1%, or 5% solutions of either formic or acetic acids, respectively. The control group was sprayed with 1 mL pure water. The beakers in all treatments were covered by cloth to prevent the escape of fire ants. The surviving number of the fire ants in each treatment was counted by 1 h interval for 7 h. […] The surviving number of the fire ants in each treatment was counted by 15 min interval for 90 min. […] The surviving number of the fire ants in each treatment was counted by 15 min interval for 90 min. […] The surviving number of the fire ants in each treatment was counted by 1 h interval for 7 h. […] The surviving number of the fire ants in each treatment was counted by 1 h interval for 2 h. […]

[3] = test system: giant salvinia (Salvinia molesta)
Experimental: Plant growth and survival status were documented and photographed hourly for the first 5 h and then daily for seven days after the treatment.

[4] = test system: red imported fire ant (Solenopsis invicta Buren) workers; conditions: for average mortality: 90 min
Experimental: as §1

[5] = test system: subterranean termite (Reticulitermes flavipes (Kollar)); conditions: for termite kill: during the first hour
Experimental: The mixture was put under ultrasound for 30 min extraction. The termites were then removed and the extract was dried with anhydrous magnesium sulfate. 500 μL of the extract was transferred to NMR tube for detection. ^1H-NMR experiments were performed on a JEOL ECS 400 spectrometer, with spectroscopic data referenced to the solvent used. […] The control group was sprayed with 1 mL pure water. The beakers in all treatments were covered by cloth to prevent the escape of termites. The surviving number of the termites in each treatment was counted by 1 h interval for 7 h.

[6] = test system: seedlings of rice cultivars; conditions: vs four species of Brassicaceae, Asteraceae, Fabaceae and five weed grass species of Poaceae; cited from earlier work

In the case of “4″,6″-O-[3,5-dicarbonyl-8-hydroxy-2-(4′,5′-dihydroxy-phenyl)-1-benzofuran-2-yl]-D-glucopyranose [salviniside II]”, the new growth thereafter ([1]; 0.1%, eight months of observation) was “no new growth”, the “growth of giant salvinia” value ([1]; 0.1%, within two weeks, lab at RT) was “totally inhibited” and the “activity class against giant salvinia” value ([1]; isolates and subfractions of F3) was “active”.
In the case of `NC(Cn1ccc(=O)c(O)c1)C(=O)O` (stereo not shown) [Minosine], the “inhibition on the producing plants” value (L. leucocephala) is given as “did not show any inhibition”.
With `CC(=O)O` [acetic acid] the “7 h LD50” value [2] was 6.42% and the “7 h LD90” value [2] was 9.96%.
For `O=CO` [formic acid], the growth inhibition ([3]; 0.01% concentration) was “still effectively inhibited the growth of giant salvinia”, the plants killed ([3]; 0.05% concentration, within 24 h) was “approximately 50%” and the “7 h LD90” value [2] was 5.09%. For the same molecule, the average mortality ([4]; 2.5%) was “more than 70%”, the average mortality ([4]; 5%) was 100% and the “2 h LD90” value ([4]; fumigation, PROBIT) was 0.9%. The “impact on the termites” value ([5]; 0.1%) was “no impact”, the termites killed ([5]; 1%, 7 h) was “more than 40%” and the termite kill ([5]; 5%) was “killed all termites”. The termite kill ([5]; 10%) was “killed all termites” and the “7 h LD90” value ([5]; contact toxicity) was 9.08%.
For `C=C[C@]1(C)CC[C@@H]2C(=C[C@H]3OC(=O)[C@@]4(C)C(=O)CC[C@@]2(C)[C@@H]34)C1` [momilactone A], the “effective concentration to inhibit rice seedlings relative to that for other species” value [6] is listed as 100 times.
For `C=C[C@]1(C)CC[C@@H]2C(=C[C@H]3OC(=O)[C@]4(C)[C@H]3[C@]23CC[C@@]4(O)OC3)C1` [momilactone B], the “effective concentration to inhibit rice seedlings relative to that for other species” value [6] is listed as 333 times.
